This is an account of results in patent US20140315886A1, “QUINAZOLINES AS THERAPEUTIC COMPOUNDS AND RELATED METHODS OF USE” (OTSUKA PHARMACEUTICAL CO., LTD., priority 2011, published 2014).

This assay addresses T1, purified STEP46 enzyme (Homo sapiens, UniProt P54829).
T1 sequence (P54829 197-565 limits assumed): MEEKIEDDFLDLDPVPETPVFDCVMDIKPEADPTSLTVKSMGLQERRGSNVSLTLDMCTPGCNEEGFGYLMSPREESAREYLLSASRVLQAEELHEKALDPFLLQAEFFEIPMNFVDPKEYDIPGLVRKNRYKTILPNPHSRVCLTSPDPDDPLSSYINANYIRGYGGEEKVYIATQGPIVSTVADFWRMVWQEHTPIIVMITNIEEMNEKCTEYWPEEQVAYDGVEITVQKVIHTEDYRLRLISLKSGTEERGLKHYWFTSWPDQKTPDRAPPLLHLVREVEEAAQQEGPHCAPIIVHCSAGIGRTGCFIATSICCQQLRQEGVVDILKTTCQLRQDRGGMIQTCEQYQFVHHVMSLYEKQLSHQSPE
Kind of assay: STEP46 biochemical assay (DiFMUP fluorescence phosphatase assay). The following applies: DiFMUP 10 μM, read-out: STEP IC50. How it is done:
Serial dilutions of compounds were performed in 100% DMSO and 1 uL of compounds were dispensed into 384-well black polystyrene plates (Corning, N.Y.). Compounds were incubated with 24 uL of buffer containing 50 mM Hepes, 1 mM DTT, 0.02% Brij35, 1 ng/well purified STEP46 enzyme for […] at room temperature. The reaction was initiated by addition of 25 uL of DiFMUP (6,8-difluoro-4-methylumbelliferyl phosphate) (InVitrogen, CA) with a final concentration of 10 μM and incubated at 27° C. for 90 mM Final DMSO concentration is 2%. Plates were read with florescence intensity at excitation/emission of 360/460 nm using a PheraStar plate reader (BMG Labtech, NC).
Data were expressed as percentage (%) inhibition of enzyme activity. 0% inhibition is defined as the RFUs (relative fluorescence units) in the absence of compounds and 100% inhibition is defined as RFUs in the absence of STEP46 enzyme. IC50 values of compounds with inhibitory activity against STEP46 were determined by GraphPad Prism (version 4.03) using four parameter logistic equation. Some compounds act as activators. For compounds showing STEP46 enzymatic activation, data are represented as percentage of inhibition but with negative values at three representative concentrations (25, 50 and 100 uM).
With `CNc1nc(-c2cccnc2)nc2cc(-c3cc(OC)ccc3F)ccc12` [Compound 219], the IC50 (as a rule, the concentration needed to halve the response being measured) was 1 to 10 µM.

Regarding `CNc1nc(-c2cccnc2)nc2c(OC)cc(-c3cc(F)ccc3F)cc12` [Compound 252], the IC50 is 1 to 10 µM.

In the case of `CNc1nc(-c2cccnc2)nc2c(F)c(-c3ccc(F)cc3)ccc12` [Compound 505], the IC50 fell in the range of 1 to 10 µM.

Consider `CCOc1ccc(F)c(-c2ccc3nc(-c4cccnc4)nc(NC)c3c2)c1` [Compound 201], for which the IC50 lay within 1 to 10 µM.

As for `COc1ccc2nc(-c3cccnc3)nc(Nc3ccc(F)nc3)c2c1` [Compound 35], the IC50 was 1 to 10 µM.

On to `CNc1nc(-c2cccnc2)nc2cc(-c3cccc(F)c3)c(F)cc12` [Compound 550], for which the IC50 lay within 1 to 10 µM.

Regarding `Fc1ccc(-c2ccc3nc(-c4cccnc4)nc(Nc4cncc(F)c4)c3c2)cc1` [Compound 440], the IC50 was 1 to 10 µM.

Regarding `CNc1nc(-c2cccnc2)nc2ccc(-c3ccc(F)c(C(N)=O)c3)cc12` [Compound 183], the IC50 was 1 to 10 µM.

`Clc1ccc2c(N3CCc4cccnc43)nc(-c3cccnc3)nc2c1` [Compound 62]: the IC50 lay within 1 to 10 µM.

Regarding `CC(Nc1nc(-c2cccnc2)nc2ccc(-c3ccccc3F)cc12)c1ccccn1` (stereo not shown) [Compound 366], the IC50 was in the range of 1 to 10 µM.

For `CNc1nc(-c2cccnc2)nc2ccc(-c3cnc(-c4ccccc4)s3)cc12` [Compound 464], the IC50 is greater than 10 µM.

Regarding `Cn1ccc2cc(-c3ccc4nc(-c5cccnc5)nc(NCc5ccccn5)c4c3)ccc21` [Compound 342], the IC50 is less than 1 µM.

Turning to `CNc1nc(-c2cncc(C#N)c2)nc2cc(-c3cc(F)ccc3F)ccc12` [Compound 163], the IC50 was 1 to 10 µM.

Consider `CNc1nc(-c2cccnc2)nc2ccc(-c3cccc4oc(=O)[nH]c34)cc12` [Compound 476], for which the IC50 is less than 1 µM.

Take `CNc1nc(-c2cccnc2)nc2cc(-c3ccc(F)cc3OC)ccc12` [Compound 322]: the IC50 is 1 to 10 µM.

Regarding `CNc1nc(-c2cccnc2)nc2c(C)c(-c3ccc(F)c(F)c3F)ccc12` [Compound 286], the IC50 lay in the range of 1 to 10 µM.

On to `Cc1noc(C)c1-c1nc(-c2cccnc2)nc2ccc(-c3ccc(F)cc3F)cc12` [Compound 422], for which the IC50 lay within 1 to 10 µM.

On to `CNc1nc(-c2cccnc2)nc2cc(-c3ccc(F)c(F)c3)c(F)cc12` [Compound 558], for which the IC50 fell in the range of 1 to 10 µM.

Consider `Fc1ccc(-c2ccc3nc(-c4cccnc4)nc(N4CCc5ccccc54)c3c2)cc1` [Compound 88], for which the IC50 was in the range of 1 to 10 µM.

Take `CCOc1ccc2nc(-c3cccnc3)nc(Nc3cc(C)c(F)cn3)c2c1` [Compound 67]: the IC50 lay within 1 to 10 µM.

Regarding `CNc1nc(-c2cccnc2)nc2ccc(-c3cc4[nH]c(=O)oc4cc3F)cc12` [Compound 477], the IC50 was less than 1 µM.

With `CNc1nc(-c2cccnc2)nc2c(OC)cc(-c3cccc(C#N)c3)cc12` [Compound 206], the IC50 is greater than 10 µM.

As for `CNc1nc(-c2cnccn2)nc2cc(-c3ccc(F)cc3F)ccc12` [Compound 395], the IC50 lay within 1 to 10 µM.

In the case of `CNc1nc(-c2cccnc2)nc2c(F)c(-c3cc4ccccc4s3)ccc12` [Compound 534], the IC50 was greater than 10 µM.

For the molecule `Brc1ccc2nc(-c3cccnc3)nc(N3CCc4ccccc43)c2c1` [Compound 19], the IC50 lay within 1 to 10 µM.

In the case of `CNc1nc(-c2ccnnc2)nc2ccc(-c3cccc(F)c3)cc12` [Compound 212], the IC50 is greater than 10 µM.

Consider `CNc1nc(-c2ccc(F)nc2)nc2cc(-c3cc(F)ccc3F)ccc12` [Compound 156], for which the IC50 lay in the range of 1 to 10 µM.

Regarding `CNc1nc(-c2cccnc2)nc2cc(-c3cc(F)cc(F)c3)c(F)cc12` [Compound 555], the IC50 was less than 1 µM.

For the molecule `CNc1nc(-c2cccnc2)nc2cc(-c3ccc(C#N)cc3)c(F)cc12` [Compound 559], the IC50 was in the range of 1 to 10 µM.

For `COC1CN(c2nc(-c3cccnc3)nc3ccc(-c4ccc(F)cc4F)cc23)C1` [Compound 413], the IC50 lay within 1 to 10 µM.

As for `CNc1nc(-c2cccnc2)nc2cc(-c3cccs3)ccc12` [Compound 319], the IC50 is 1 to 10 µM.

For the molecule `CNc1nc(-c2cccnc2)nc2cc(Cl)c(-c3ccc(F)cc3F)cc12` [Compound 246], the IC50 was 1 to 10 µM.

For the molecule `CC(Nc1nc(-c2cccnc2)nc2ccc(-c3cccc(F)c3)cc12)c1ccccc1` (stereo not shown) [Compound 604], the IC50 lay within 1 to 10 µM.

Take `CNc1nc(-c2cnccn2)nc2ccc(-c3ccc(F)cc3F)c(F)c12` [Compound 976]: the IC50 was in the range of 1 to 10 µM.

`CCOc1ccc2nc(-c3cccnc3)nc(Nc3cncc(F)c3)c2c1` [Compound 47]: the IC50 lay in the range of 1 to 10 µM.

On to `CNc1nc(-c2cccnc2)nc2cc(-c3cc(F)cc(OCC(=O)N(C)C)c3)ccc12` [Compound 143], for which the IC50 is 1 to 10 µM.

For the molecule `CNc1nc(-c2cccnc2)nc2c(F)c(-c3cc(F)ccc3F)ccc12` [Compound 514], the IC50 lay in the range of 1 to 10 µM.

In the case of `CNc1nc(-c2cccnc2F)nc2ccc(-c3cccc(F)c3)cc12` [Compound 214], the IC50 fell in the range of 1 to 10 µM.

For the molecule `CN(C)c1nc(-c2cccnc2)nc2ccc(-c3ccc(C4CC4)cc3)cc12` [Compound 308], the IC50 is greater than 10 µM.

For the molecule `CNc1nc(-c2cccnc2OC)nc2cc(-c3cc(F)ccc3F)ccc12` [Compound 158], the IC50 was in the range of 1 to 10 µM.

`Fc1ccc(F)c(-c2ccc3c(N4CCc5cc(Cl)ccc54)nc(-c4cccnc4)nc3c2)c1` [Compound 109]: the IC50 is 1 to 10 µM.

Turning to `CNc1nc(-c2cnccn2)nc2cc(-c3cccc(F)c3)ccc12` [Compound 392], the IC50 was in the range of 1 to 10 µM.

For `CNc1nc(-c2cccnc2)nc2c(F)c(-c3ccc4[nH]ncc4c3)ccc12` [Compound 535], the 50% inhibitory concentration (IC50) was 1 to 10 µM.

As for `CNc1nc(-c2cnccn2)nc2cc(-c3ccc(F)c(F)c3)ccc12` [Compound 397], the IC50 was 1 to 10 µM.

Take `CNc1nc(-c2cccnc2)nc2c(-c3cc(F)ccc3F)ccc(OC)c12` [Compound 497]: the IC50 lay within 1 to 10 µM.

With `COc1ccc2nc(-c3cccnc3)nc(Nc3cccc(F)n3)c2c1` [Compound 32], the IC50 is greater than 10 µM.

In the case of `CNC(=O)C1CN(c2nc(-c3cccnc3)nc3ccc(-c4ccc(F)cc4F)cc23)C1` [Compound 423], the IC50 is 1 to 10 µM.

On to `CNc1nc(-c2cccnc2)nc2c(OC)cc(-c3cccc(F)c3)cc12` [Compound 253], for which the IC50 lay within 1 to 10 µM.

Turning to `Fc1ccc(-c2ccc3nc(-c4cccnc4)nc(Nc4cc(F)ccn4)c3c2)cc1` [Compound 442], the IC50 was 1 to 10 µM.

`CNc1nc(-c2cccnc2)nc2c(Cl)cc(-c3cccc(F)c3)cc12` [Compound 264]: the IC50 fell in the range of 1 to 10 µM.

As to `CNc1nc(-c2cccnc2)nc2ccc(-c3ncco3)cc12` [Compound 178], the IC50 was greater than 10 µM.

Turning to `CNc1nc(-c2cccnc2)nc2cc(F)c(-c3cccc(F)c3F)cc12` [Compound 594], the IC50 fell in the range of 1 to 10 µM.

As for `CNc1nc(-c2cccnc2)nc2ccc(-c3cccc(OCCC(C)O)c3)cc12` (stereo not shown) [Compound 224], the IC50 fell in the range of 1 to 10 µM.

With `Fc1ccc(Nc2nc(-c3cccnc3)nc3cc(Cl)ccc23)nc1` [Compound 52], the IC50 lay in the range of 1 to 10 µM.

As for `CNc1nc(-c2cccnc2)nc2cc(-c3cccc(OCC(=O)N(C)C)c3)ccc12` [Compound 138], the IC50 was in the range of 1 to 10 µM.

Take `Clc1ccc2c(c1)CCN2c1nc(-c2cccnc2)nc2cc(Br)ccc12` [Compound 14]: the IC50 is 1 to 10 µM.

Consider `CNc1nc(-c2cccnc2)nc2ccc(-c3c(F)ccc(F)c3F)cc12` [Compound 456], for which the IC50 fell in the range of 1 to 10 µM.

For the molecule `CNc1nc(-c2cnccn2)nc2cc(-c3cc(F)ccc3F)ccc12` [Compound 396], the IC50 was 1 to 10 µM.

For the molecule `Fc1ccc(-c2ccc3nc(-c4cccnc4)nc(N4CC(n5cccn5)C4)c3c2)c(F)c1` [Compound 420], the IC50 is greater than 10 µM.

Turning to `CNc1nc(-c2cccnc2)nc2c(F)c(-c3ccco3)ccc12` [Compound 524], the IC50 lay in the range of 1 to 10 µM.

As for `CNc1nc(-c2cccnc2)nc2cc(-c3cccc(OC)c3F)ccc12` [Compound 215], the IC50 lay within 1 to 10 µM.

Consider `Cc1ccc2c(c1)CCN2c1nc(-c2cccnc2)nc2ccc(-c3ccc(F)cc3)cc12` [Compound 79], for which the IC50 was in the range of 1 to 10 µM.

For `Fc1cccc(-c2ccc3nc(-c4ccnnc4)nc(NCc4ccccn4)c3c2)c1F` [Compound 333], the IC50 is greater than 10 µM.

Take `CCOc1ccc2nc(-c3cccnc3)nc(N3CCc4ccc(Cl)cc43)c2c1` [Compound 5]: the IC50 is 1 to 10 µM.

For the molecule `CNc1nc(-c2cccnc2)nc2cc(-c3cc(F)ccc3F)c(F)cc12` [Compound 554], the IC50 was 1 to 10 µM.

Regarding `CNc1nc(-c2cccnc2)nc2ccc(-c3ccc(OC)cc3C(F)(F)F)cc12` [Compound 249], the IC50 is greater than 10 µM.

Consider `COc1ccc2nc(-c3cccnc3)nc(-n3ccc4cccnc43)c2c1` [Compound 41], for which the IC50 was 1 to 10 µM.
